Measured values reported in the NIST ThermoML archive (doi:10.1021/je101058b).

Settings: Liquid, Pycnometric method

c1ccc2c(c1)ccc1ccccc12 [phenanthrene]
molar volume [m3/mol]
Settings | 377.69 K | 385.54 K | 393.38 K | 401.26 K | 409.13 K | 417.06 K | 424.84 K
2049 kPa | 0.0001679 | 0.0001688 | 0.0001698 | 0.0001708 | 0.0001717 | 0.0001728 | 0.0001738
4049 kPa | 0.0001677 | 0.0001686 | 0.0001696 | 0.0001705 | 0.0001715 | 0.0001726 | 0.0001735
6049 kPa | 0.0001674 | 0.0001683 | 0.0001692 | 0.0001702 | 0.0001712 | 0.0001723 | 0.0001732
8049 kPa | 0.0001672 | 0.0001681 | 0.000169 | 0.00017 | 0.000171 | 0.0001719 | 0.0001729
10049 kPa | 0.000167 | 0.0001679 | 0.0001689 | 0.0001698 | 0.0001709 | 0.0001718 | 0.0001727
